Test results published in PubChem BioAssay AID342 (DTP/NCI, 2004).
Where “and” joins values, the source holds several entries; their conditions need not be identical. Identical values can stand only once.

System: Swiss mice, Sarcoma 180 sc, mean tumor weight T/C
Assay: NCI In Vivo Anticancer Drug Screen. Data for tumor model Sarcoma 180 (subcutaneous) in Swiss mice
Details: endpoint: mean tumor weight, higher = larger tumour
Summary of the method: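 Transplantable tumors were established in mice, compound was given, then survival or tumor size was recorded. The treated value was divided by the vehicle-control value.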

[1] = dose: 0.25 mg/kg/injection, schedule: Q#A X014 (ip), vehicle: carboxymethylcellulose (CMC)
[2] = dose: 0.5 mg/kg/injection, schedule: Q#A X014 (ip), vehicle: carboxymethylcellulose (CMC)

O=C(Nc1ccc([N+](=O)[O-])cc1)Nc1ccc([N+](=O)[O-])cc1 (tested in a mixture with another compound)
T/C (dose: 37.0 mg/kg/injection, schedule: Q#A X014 (ip), vehicle: methylcellulose (MC)): 59 % of control | T/C (dose: 55.5 mg/kg/injection, schedule: Q#A X014 (ip), vehicle: methylcellulose (MC)): 60 % of control | T/C (dose: 187.5 mg/kg/injection, schedule: Q#A X014 (ip), vehicle: methylcellulose (MC)): 53 % of control and 50 % of control and 52 % of control | T/C (dose: 250.0 mg/kg/injection, schedule: Q#A X014 (ip), vehicle: methylcellulose (MC)): 44 % of control

CCCCCCCCCCCCO[P+](=O)OCCCCCCCCCCCC
T/C (dose: 100.0 mg/kg/injection, schedule: Q01DX007 (ip), vehicle: carboxymethylcellulose (CMC)): 111 % of control | T/C (dose: 111.0 mg/kg/injection, schedule: Q#A X014 (ip), vehicle: carboxymethylcellulose (CMC)): 45 % of control | T/C (dose: 222.0 mg/kg/injection, schedule: Q01DX007 (ip), vehicle: carboxymethylcellulose (CMC)): 47 % of control and 71 % of control | T/C (dose: 250.0 mg/kg/injection, schedule: Q#A X014 (ip), vehicle: carboxymethylcellulose (CMC)): 25 % of control | T/C (dose: 300.0 mg/kg/injection, schedule: Q01DX007 (ip), vehicle: carboxymethylcellulose (CMC)): 32 % of control | T/C (dose: 333.0 mg/kg/injection, schedule: Q01DX007 (ip), vehicle: carboxymethylcellulose (CMC)): 63 % of control and 65 % of control | T/C (dose: 375.0 mg/kg/injection, schedule: Q#A X014 (ip), vehicle: carboxymethylcellulose (CMC)): 20 % of control | T/C (dose: 500.0 mg/kg/injection, schedule: Q01DX007 (ip), vehicle: carboxymethylcellulose (CMC)): 42 % of control and 50 % of control | T/C (dose: 750.0 mg/kg/injection, schedule: Q01DX007 (ip), vehicle: carboxymethylcellulose (CMC)): 12 % of control

C[C@]12CC[C@@H]3c4ccc(O)cc4CC[C@H]3[C@@H]1C[C@H](O)C2
T/C (dose: 0.25 mg/kg/injection, schedule: Q#A X014 (sc), vehicle: steriod suspending solution): 120 % of control | T/C (dose: 0.5 mg/kg/injection, schedule: Q01DX007 (sc), vehicle: steriod suspending solution): 110 % of control | T/C (dose: 1.25 mg/kg/injection, schedule: Q01DX007 (sc), vehicle: steriod suspending solution): 60 % of control | T/C (dose: 1.25 mg/kg/injection, schedule: Q#A X014 (sc), vehicle: steriod suspending solution): 99 % of control | T/C (dose: 2.5 mg/kg/injection, schedule: Q#A X014 (sc), vehicle: steriod suspending solution): 58 % of control | T/C (dose: 10.0 mg/kg/injection, schedule: Q#A X014 (sc), vehicle: steriod suspending solution): 73 % of control

COC(=O)C1=COC(C)C2CN3CCc4c([nH]c5cc(OC)ccc45)C3CC12 (stereo not drawn)
T/C (dose: 50.0 mg/kg/injection, schedule: Q01DX007 (ip), vehicle: other): 91 % of control | T/C (dose: 100.0 mg/kg/injection, schedule: Q01DX007 (ip), vehicle: other): 89 % of control | T/C (dose: 200.0 mg/kg/injection, schedule: Q01DX007 (ip), vehicle: other): 75 % of control

CN(C)[C@@H]1C(=O)C(C(=O)NCNCCCC(=O)O)=C(O)[C@@]2(O)C(=O)C3=C(O)c4c(O)cccc4[C@@](C)(O)[C@H]3C[C@@H]12
T/C (dose: 111.0 mg/kg/injection, schedule: Q#A X014 (ip), vehicle: saline): 97 % of control and 112 % of control | T/C (dose: 166.5 mg/kg/injection, schedule: Q#A X014 (ip), vehicle: saline): 101 % of control and 105 % of control | T/C (dose: 250.0 mg/kg/injection, schedule: Q#A X014 (ip), vehicle: saline): 52 % of control

C[C@]12CC[C@H](OC3OC(CO)C(O)C(O)C3O)C[C@H]1CC[C@@H]1[C@@H]2CC[C@]2(C)[C@@H](C3=CCOC3=O)CC[C@]12O (stereo partly drawn)
T/C (dose: 0.01 mg/kg/injection, schedule: Q01DX007 (ip), vehicle: carboxymethylcellulose (CMC)): 60 % of control | T/C (dose: 0.05 mg/kg/injection, schedule: Q01DX007 (ip), vehicle: carboxymethylcellulose (CMC)): 40 % of control | T/C (dose: 0.12 mg/kg/injection, schedule: Q03DX003 (ip), vehicle: carboxymethylcellulose (CMC)): 81 % of control | T/C (dose: 0.12 mg/kg/injection, schedule: Q#A X014 (ip), vehicle: carboxymethylcellulose (CMC)): 99 % of control | T/C (dose: 0.2 mg/kg/injection, schedule: Q01DX007 (ip), vehicle: carboxymethylcellulose (CMC)): 46 % of control | T/C (dose: 0.25 mg/kg/injection, schedule: Q01DX007 (ip), vehicle: saline): 82 % of control | T/C (dose: 0.25 mg/kg/injection, schedule: Q01DX007 (ip), vehicle: water): 86 % of control | T/C (dose: 0.25 mg/kg/injection, schedule: Q03DX003 (ip), vehicle: carboxymethylcellulose (CMC)): 75 % of control | T/C [1]: 57 % of control | T/C (dose: 0.26 mg/kg/injection, schedule: Q01DX007 (ip), vehicle: saline): 49 % of control and 51 % of control | T/C (dose: 0.38 mg/kg/injection, schedule: Q03DX003 (ip), vehicle: carboxymethylcellulose (CMC)): 105 % of control and 108 % of control | T/C (dose: 0.5 mg/kg/injection, schedule: Q01DX007 (ip), vehicle: saline): 55 % of control | T/C (dose: 0.5 mg/kg/injection, schedule: Q01DX007 (ip), vehicle: water): 90 % of control | T/C (dose: 0.5 mg/kg/injection, schedule: Q03DX003 (ip), vehicle: carboxymethylcellulose (CMC)): 92 % of control | T/C [2]: 53 % of control | T/C (dose: 0.6 mg/kg/injection, schedule: Q01DX007 (ip), vehicle: saline): 34 % of control and 57 % of control | T/C (dose: 0.8 mg/kg/injection, schedule: Q01DX007 (ip), vehicle: carboxymethylcellulose (CMC)): 27 % of control | T/C (dose: 0.9 mg/kg/injection, schedule: Q01DX007 (ip), vehicle: saline): 47 % of control and 51 % of control | T/C (dose: 0.96 mg/kg/injection, schedule: Q01DX007 (ip), vehicle: saline): 13 % of control | T/C (dose: 1.0 mg/kg/injection, schedule: Q01DX007 (ip), vehicle: carboxymethylcellulose (CMC)): 28 % of control | T/C (dose: 1.0 mg/kg/injection, schedule: Q01DX007 (ip), vehicle: saline): 40 % of control | T/C (dose: 1.0 mg/kg/injection, schedule: Q01DX007 (ip), vehicle: water): 40 % of control | T/C (dose: 1.0 mg/kg/injection, schedule: Q#A X014 (ip), vehicle: carboxymethylcellulose (CMC)): 35 % of control | T/C (dose: 1.3 mg/kg/injection, schedule: Q01DX007 (ip), vehicle: saline): 32 % of control and 38 % of control | T/C (dose: 1.9 mg/kg/injection, schedule: Q01DX007 (ip), vehicle: saline): 13 % of control | T/C (dose: 2.0 mg/kg/injection, schedule: Q01DX007 (ip), vehicle: saline): 22 % of control and 43 % of control | T/C (dose: 10.4 mg/kg/injection, schedule: Q01DX007 (oral), vehicle: carboxymethylcellulose (CMC)): 89 % of control | T/C (dose: 16.0 mg/kg/injection, schedule: Q01DX007 (oral), vehicle: carboxymethylcellulose (CMC)): 95 % of control | T/C (dose: 24.0 mg/kg/injection, schedule: Q01DX007 (oral), vehicle: carboxymethylcellulose (CMC)): 110 % of control | T/C (dose: 36.0 mg/kg/injection, schedule: Q01DX007 (oral), vehicle: carboxymethylcellulose (CMC)): 74 % of control | T/C (dose: 54.0 mg/kg/injection, schedule: Q01DX007 (oral), vehicle: carboxymethylcellulose (CMC)): 101 % of control | T/C (dose: 80.0 mg/kg/injection, schedule: Q01DX007 (oral), vehicle: carboxymethylcellulose (CMC)): 105 % of control | T/C (dose: 81.0 mg/kg/injection, schedule: Q01DX007 (oral), vehicle: carboxymethylcellulose (CMC)): 100 % of control | T/C (dose: 120.0 mg/kg/injection, schedule: Q01DX007 (oral), vehicle: carboxymethylcellulose (CMC)): 91 % of control | T/C (dose: 150.0 mg/kg/injection, schedule: Q01DX007 (oral), vehicle: carboxymethylcellulose (CMC)): 82 % of control | T/C (dose: 160.0 mg/kg/injection, schedule: Q01DX007 (oral), vehicle: carboxymethylcellulose (CMC)): 85 % of control | T/C (dose: 300.0 mg/kg/injection, schedule: Q01DX007 (oral), vehicle: carboxymethylcellulose (CMC)): 97 % of control | T/C (dose: 500.0 mg/kg/injection, schedule: Q01DX007 (oral), vehicle: carboxymethylcellulose (CMC)): 96 % of control | T/C (dose: 15.0 micrograms/kg/injection, schedule: Q01DX007 (ip), vehicle: saline): 73 % of control and 89 % of control | T/C (dose: 120.0 micrograms/kg/injection, schedule: Q01DX007 (ip), vehicle: saline): 65 % of control and 77 % of control | T/C (dose: 125.0 micrograms/kg/injection, schedule: Q01DX007 (ip), vehicle: carboxymethylcellulose (CMC)): 85 % of control and 99 % of control | T/C (dose: 240.0 micrograms/kg/injection, schedule: Q01DX007 (ip), vehicle: saline): 73 % of control and 84 % of control | T/C (dose: 250.0 micrograms/kg/injection, schedule: Q01DX007 (ip), vehicle: carboxymethylcellulose (CMC)): 72 % of control and 79 % of control | T/C (dose: 500.0 micrograms/kg/injection, schedule: Q01DX007 (ip), vehicle: carboxymethylcellulose (CMC)): 47 % of control and 62 % of control | T/C (dose: 960.0 micrograms/kg/injection, schedule: Q01DX007 (ip), vehicle: saline): 33 % of control | T/C (dose: 2000.0 micrograms/kg/injection, schedule: Q01DX007 (ip), vehicle: carboxymethylcellulose (CMC)): 68 % of control

O=c1[nH]c(=O)c2n[nH]nc2[nH]1
T/C [1]: 122 % of control | T/C [2]: 102 % of control | T/C (dose: 2.0 mg/kg/injection, schedule: Q#A X014 (ip), vehicle: carboxymethylcellulose (CMC)): 114 % of control | T/C (dose: 86.28 mg/kg/injection, schedule: Q01DX007 (ip), vehicle: carboxymethylcellulose (CMC)): 68 % of control | T/C (dose: 172.57 mg/kg/injection, schedule: Q01DX007 (ip), vehicle: carboxymethylcellulose (CMC)): 49 % of control | T/C (dose: 345.15 mg/kg/injection, schedule: Q01DX007 (ip), vehicle: carboxymethylcellulose (CMC)): 102 % of control | T/C (dose: 690.3 mg/kg/injection, schedule: Q01DX007 (ip), vehicle: carboxymethylcellulose (CMC)): 51 % of control
